This note sets out measurements from ChEMBL document CHEMBL1201862, “PubChem BioAssay data set” (2004).

What all share (type): functional
Assay [1] is described as follows: SAR analysis of small molecule activators of Apaf-1 using a LZ-Caspase-9/Caspase-3 Fluorescent Selectivity assay - Set 2. The note with it: read-out: EC50_Mean.
In assay [2] the target is T1, Apoptotic protease-activating factor 1 (Homo sapiens, UniProt O14727).
T1 sequence (O14727 whole entry): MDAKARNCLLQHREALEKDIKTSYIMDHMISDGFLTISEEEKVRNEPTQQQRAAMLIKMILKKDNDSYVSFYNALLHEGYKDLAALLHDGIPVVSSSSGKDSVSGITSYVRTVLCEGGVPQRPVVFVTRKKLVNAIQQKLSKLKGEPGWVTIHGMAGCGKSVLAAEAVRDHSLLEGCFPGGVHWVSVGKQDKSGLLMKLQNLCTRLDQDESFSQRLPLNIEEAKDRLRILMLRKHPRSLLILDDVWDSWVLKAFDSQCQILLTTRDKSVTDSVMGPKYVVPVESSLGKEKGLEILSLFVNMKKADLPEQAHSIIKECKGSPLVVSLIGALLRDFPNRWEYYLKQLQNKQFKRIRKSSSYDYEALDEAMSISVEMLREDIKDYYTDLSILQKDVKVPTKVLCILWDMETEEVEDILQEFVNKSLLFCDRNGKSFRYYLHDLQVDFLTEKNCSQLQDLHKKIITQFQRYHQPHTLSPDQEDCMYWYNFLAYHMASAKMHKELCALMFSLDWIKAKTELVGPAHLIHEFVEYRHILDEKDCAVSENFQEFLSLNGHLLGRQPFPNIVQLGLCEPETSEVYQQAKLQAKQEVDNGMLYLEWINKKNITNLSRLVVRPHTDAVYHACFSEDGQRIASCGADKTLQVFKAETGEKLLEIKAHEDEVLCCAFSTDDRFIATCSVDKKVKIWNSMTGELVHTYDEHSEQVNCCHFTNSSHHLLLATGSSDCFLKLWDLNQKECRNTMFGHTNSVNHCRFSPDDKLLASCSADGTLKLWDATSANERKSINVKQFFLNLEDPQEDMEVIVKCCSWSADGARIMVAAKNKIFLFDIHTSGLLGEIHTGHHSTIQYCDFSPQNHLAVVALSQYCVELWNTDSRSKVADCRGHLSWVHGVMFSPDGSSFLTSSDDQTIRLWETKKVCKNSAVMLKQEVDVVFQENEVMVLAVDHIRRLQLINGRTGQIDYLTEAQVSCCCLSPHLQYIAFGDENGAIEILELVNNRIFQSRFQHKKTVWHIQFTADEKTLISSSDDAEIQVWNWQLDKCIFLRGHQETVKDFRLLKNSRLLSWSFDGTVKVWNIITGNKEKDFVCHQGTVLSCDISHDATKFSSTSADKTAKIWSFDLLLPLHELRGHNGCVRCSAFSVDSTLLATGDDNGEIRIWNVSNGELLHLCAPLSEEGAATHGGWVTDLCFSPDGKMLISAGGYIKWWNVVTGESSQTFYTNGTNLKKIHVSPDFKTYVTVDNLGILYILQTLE
Put plainly: SAR analysis of small molecule Activators of Apaf-1 in a Fluorescent assay - set 2. The note with it: read-out: EC50_Mean.

Assay [3] has as its target Melanin-concentrating hormone receptor 1 (Homo sapiens, UniProt Q99705). Put plainly: Late-stage fluorescence-based counterscreen for antagonists of the G-protein coupled receptor 7 (GPR7): cell-based dose response assay to identify antagonists of the melanin-concentrating hormone receptor 1 (MCHR1) Set 6. In general terms: The purpose of a counterscreen is to sort out artefacts and off-target activity.

The target of assay [4] is T2, Neuropeptides B/W receptor type 1 (Homo sapiens, UniProt P48145).
T2 sequence (P48145 whole entry): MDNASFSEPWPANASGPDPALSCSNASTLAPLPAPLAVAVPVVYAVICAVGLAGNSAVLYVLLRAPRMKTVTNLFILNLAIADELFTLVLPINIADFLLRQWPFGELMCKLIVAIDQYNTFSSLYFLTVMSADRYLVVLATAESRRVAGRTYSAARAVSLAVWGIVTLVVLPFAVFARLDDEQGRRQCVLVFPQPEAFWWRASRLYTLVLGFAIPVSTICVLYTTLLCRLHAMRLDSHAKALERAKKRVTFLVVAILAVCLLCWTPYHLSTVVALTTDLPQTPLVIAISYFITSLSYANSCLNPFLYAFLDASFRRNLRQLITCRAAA
Put plainly: human NPBW1 receptor blockade, IC50 – cell-based, fluorescence, dose response, set 6, late-stage follow-up (AID 588583).

SMILES strings stand for the structures. Active and inactive are the calls of the source. A value given as a limit tells only on which side of the number the result lay.

Melanin-concentrating hormone receptor 1, sequence (Q99705 whole entry): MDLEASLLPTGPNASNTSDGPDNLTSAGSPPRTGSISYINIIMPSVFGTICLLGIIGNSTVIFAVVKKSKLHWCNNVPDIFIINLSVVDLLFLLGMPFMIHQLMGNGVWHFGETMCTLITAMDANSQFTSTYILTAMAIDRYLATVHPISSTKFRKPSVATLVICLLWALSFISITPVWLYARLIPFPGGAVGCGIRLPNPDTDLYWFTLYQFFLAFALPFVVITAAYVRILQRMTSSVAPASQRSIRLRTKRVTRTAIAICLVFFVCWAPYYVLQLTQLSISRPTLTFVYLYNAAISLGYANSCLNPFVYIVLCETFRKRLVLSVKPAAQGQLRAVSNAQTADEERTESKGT

As for `CC(Cn1nnc2ccccc21)C(=O)O` (centres undefined), the EC50 was > 100 µM (inactive) in assay [1] and 42.6 µM (active) in assay [2].

The term IC50 denotes the point on the concentration scale where inhibition reaches its midpoint. In the case of `N#CC(c1ccccc1)c1c(S)cnn(Cc2cccc3ccccc23)c1=O` (centres undefined), the IC50 in assay [3] and in assay [4] was > 20 µM (inactive) each time.
